Experimental data: publication PMC8973347, “Discovery of novel sulphonamide hybrids that inhibit LSD1 against bladder cancer cells” (Journal of Enzyme Inhibition and Medicinal Chemistry, 2022)
Entries after “also recorded” stand apart in the source; their conditions may differ.

Assays:
MAO-A = biological target: T1, MAO-A (Homo sapiens, UniProt P21397); assay: MAO-A/B biochemical kit, MAO-A
T1 construct: purchased Promega
T1 sequence (P21397 1-527): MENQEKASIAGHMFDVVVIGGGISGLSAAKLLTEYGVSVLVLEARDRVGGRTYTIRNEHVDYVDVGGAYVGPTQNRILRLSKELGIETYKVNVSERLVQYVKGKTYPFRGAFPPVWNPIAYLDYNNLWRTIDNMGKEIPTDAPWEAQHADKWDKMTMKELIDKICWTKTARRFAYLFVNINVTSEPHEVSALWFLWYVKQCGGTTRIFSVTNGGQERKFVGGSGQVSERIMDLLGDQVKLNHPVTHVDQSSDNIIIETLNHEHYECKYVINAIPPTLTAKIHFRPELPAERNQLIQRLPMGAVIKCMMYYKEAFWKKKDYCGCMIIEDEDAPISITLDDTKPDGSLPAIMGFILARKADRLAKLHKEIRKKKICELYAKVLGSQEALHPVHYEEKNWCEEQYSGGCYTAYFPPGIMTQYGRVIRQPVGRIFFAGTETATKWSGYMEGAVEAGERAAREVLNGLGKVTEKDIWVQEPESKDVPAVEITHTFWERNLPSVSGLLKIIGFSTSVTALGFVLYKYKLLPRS
Description: (§1) LSD1 inhibitor screening assay kit was purchased to evaluate for the enzyme inhibition activity of all synthetic compounds (Cayman Chemical, Fort Annapolis, MI). The MAO-A/B biochemical kit was purchased to explore the inhibitory activity against MAO-A and MAO-B (Promega, Madison, WI). […] The signal of each well was read by a GloMax Explorer (Beijing Yuanpinghao Biotechnology Co., Ltd, Beijing, China).

MAO-B = biological target: T2, MAO-B (Homo sapiens, UniProt P27338); assay: MAO-A/B biochemical kit, MAO-B
T2 construct: purchased Promega
T2 sequence (P27338 1-520): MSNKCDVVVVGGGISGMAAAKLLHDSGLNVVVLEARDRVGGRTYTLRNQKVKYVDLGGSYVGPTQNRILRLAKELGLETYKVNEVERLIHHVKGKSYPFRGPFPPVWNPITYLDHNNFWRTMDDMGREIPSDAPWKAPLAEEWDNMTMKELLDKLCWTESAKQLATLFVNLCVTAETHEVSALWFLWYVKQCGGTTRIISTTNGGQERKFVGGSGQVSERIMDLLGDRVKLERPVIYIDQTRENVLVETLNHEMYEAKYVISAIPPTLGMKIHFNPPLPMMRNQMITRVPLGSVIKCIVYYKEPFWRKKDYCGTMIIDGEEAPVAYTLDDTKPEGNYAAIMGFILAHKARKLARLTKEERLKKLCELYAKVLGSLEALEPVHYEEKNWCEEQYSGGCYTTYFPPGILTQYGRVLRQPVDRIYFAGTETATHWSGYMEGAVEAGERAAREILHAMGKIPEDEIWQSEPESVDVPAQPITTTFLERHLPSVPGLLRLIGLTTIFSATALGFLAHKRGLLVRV
Description: as §1

[1] = tested on: H3K4me1, H3K4me2, and H3K9me2 in HT1376 cells; assay: Western blotting of LSD1 substrates; type: cell-based; conditions: Figure 4(D)
Protocol: Cells were seeded in four-well plates (Shanghai Yuanye Biotechnology Co., Ltd, Shanghai, China) and exposed to different compounds at different concentrations. Cells were harvested to obtain protein solution by the RIPA Lysis Buffer (DeTie, NanJing, China). The proteins were separated on sodium dodecyl sulphate–polyacrylamide gel electrophoresis (SDS-PAGE) gels and then transferred to poly(vinylidene fluoride (PVDF) membranes (Shanghai Yuanye Biotechnology Co., Ltd, Shanghai, China). It incubated with the primary antibodies and corresponding HRP conjugated secondary antibodies (Servicebio, Wuhan, China). The […] kit (Servicebio, Wuhan, China) was used to visualise the bands.

LSD1 [2] = biological target: T3, LSD1 (Homo sapiens, UniProt O60341); assay: LSD1 dilution assay; type: biochemical; set-up: purchased Cayman Chemical; conditions: diluted 80 times; Figure 3(C)
Protocol: LSD1 recombinant (Cayman Chemical, […], MI) was incubated with the targeted compound or dimethyl sulphoxide for 60 min. Then, samples were diluted 80 times using a HRP-assay solution containing substrate and coupling reagents. Finally, LSD1 inhibitory activity before and after dilution was examined.

[3] = tested on: HTB3 (human bladder cell line); assay: MTT cell viability assay, HTB3; conditions: read-out: IC50 against HTB3 cells, 48 h
Protocol: (§2) Cells were cultured at a 96-well plate for 24 h (Cayman Chemical, Fort Annapolis, MI) and different compounds were added. […] The solution was removed and dimethyl sulphoxide was added. Thirty minutes later, absorption values were read by a Fully Automated Microplate ELISA Analyser (DeTie, NanJing, China).

[4] = tested on: LX-2 (normal human hepatic stellate cell line); assay: MTT cell viability assay, LX-2; conditions: read-out: IC50 against LX-2 normal cell line, 48 h
Protocol: as §2

[5] = tested on: HIEC (normal human intestinal epithelial cell line); assay: MTT cell viability assay, HIEC; conditions: read-out: IC50 against HIEC normal cell line, 48 h
Protocol: as §2

[6] = tested on: HTB5 cells (bladder cancer cell line); assay: MTT cell viability assay, HTB5; conditions: read-out: IC50 against HTB5 cells; 48 h
Protocol: as §2

[7] = tested on: HTB1 cells (bladder cancer cell line); assay: MTT cell viability assay, HTB1; conditions: read-out: IC50 against HTB1 cells; 48 h
Protocol: as §2

[8] = tested on: H1299 (human lung cell line); assay: MTT cell viability assay, H1299; conditions: read-out: IC50 against H1299 cells, 48 h
Protocol: as §2

[9] = tested on: HCT-15 (human colon cell line); assay: MTT cell viability assay, HCT-15; conditions: read-out: IC50 against HCT-15 cells, 48 h
Protocol: as §2

[10] = tested on: Jurkat (human leukaemia cell line); assay: MTT cell viability assay, Jurkat; conditions: read-out: IC50 against Jurkat cells, 48 h
Protocol: as §2

[11] = tested on: HT1376 cells (bladder cancer cell line); assay: MTT cell viability assay, HT1376; conditions: read-out: IC50 against HT1376 cells; 48 h
Protocol: as §2

[12] = tested on: Bel7402 (human liver cell line); assay: MTT cell viability assay, Bel7402; conditions: read-out: IC50 against Bel7402 cells, 48 h
Protocol: as §2

[13] = tested on: HPAEpiC (normal human alveolar epithelial cell line); assay: MTT cell viability assay, HPAEpiC; conditions: read-out: IC50 against HPAEpiC normal cell line, 48 h
Protocol: as §2

LSD1 [14] = biological target: T3, LSD1; assay: LSD1 inhibitor screening assay kit
Description: as §1

[15] = tested on: SGC-7901 (human gastric cell line); assay: MTT cell viability assay, SGC-7901; conditions: read-out: IC50 against SGC-7901 cells, 48 h
Protocol: as §2

HTB3&shControl cells = assay: Antiproliferative activity, control cells HTB3&shControl; conditions: read-out: IC50 against HTB3&shControl cells
Protocol: as §2

HT1376&shControl cells = assay: Antiproliferative activity, control cells HT1376&shControl; conditions: read-out: IC50 against HT1376&shControl cells
Protocol: as §2

HTB3&shLSD1 cells = assay: Antiproliferative activity, LSD1 knock-down cells HTB3&shLSD1; conditions: read-out: IC50 against HTB3&shLSD1 cells
Protocol: as §2

HT1376&shLSD1 cells = assay: Antiproliferative activity, LSD1 knock-down cells HT1376&shLSD1; conditions: read-out: IC50 against HT1376&shLSD1 cells
Protocol: as §2

In the case of `COc1cc(N(CCCCSC(=S)N2CCN(CCO)CC2)S(=O)(=O)c2cccc3cccnc23)cc(OC)c1OC` [Compound L8, 4-(N-(3,4,5-trimethoxyphenyl)quinoline-8-sulfonamido)butyl-4–(2-hydroxyethyl)piperazine-1-carbodithioate], the IC50 (MAO-A) is reported as greater than 120 µM, the “inhibitory rate MAO-A” value (MAO-A; at 100 nM) is reported as 10.33% and the IC50 (MAO-B) is reported as greater than 120 µM. For the same molecule, the “inhibitory rate MAO-B” value (MAO-B; at 100 nM) was 9.33%, the “expression levels of H3K4me1, H3K4me2, and H3K9me2” value [1] was “increasing; also recorded: increased” and the “reversibility of LSD1 inhibition” value (LSD1 [2]) was “reversible”. For the same molecule, the IC50 [3] was 180 nM, the IC50 [4] was greater than 16 µM and the IC50 [5] was greater than 16 µM. The IC50 [6] was 1870 nM, the IC50 [7] was 930 nM and the IC50 [8] was 310 nM. The IC50 [9] was 2170 nM, the IC50 [10] was 290 nM and the IC50 [11] was 90 nM. For the same molecule, the IC50 [12] was 960 nM, the IC50 [13] was greater than 16 µM and the “time dependence of LSD1 inhibition” value (LSD1 [14]; Figure 3(B)) was “time-dependent”. The “inhibition against LSD1” value (LSD1 [14]; at 25 nM) was “about 30.33%”, the “inhibition against LSD1” value (LSD1 [14]; at 50 nM) was roughly 46.00% and the “inhibition against LSD1” value (LSD1 [14]; at 100 nM) was roughly 68.00%. It also gave an IC50 (LSD1 [14]; read-out: IC50 (μM) LSD1) of 0.06 ± 0.01 µM, an IC50 [15] of 2670 nM and an IC50 (HTB3&shControl cells) of 230 nM. It also gave an IC50 (HT1376&shControl cells) of 110 nM, an IC50 (HTB3&shLSD1 cells) of 3.07 µM and an IC50 (HT1376&shLSD1 cells) of 4.36 µM.
